Source: patent publication US8080546B2, “Pyrazolo-pyridinone derivatives and methods of use” (Amgen Inc., priority 2007, dated 2011)
Read-outs that look alike come from different tables or passages of the source.

How the values were obtained:
THP1 cells = experiment: Lipopolysaccharide-activated THP1 cell TNF production assay (THP1 cell based); settings: Homo sapiens, THP-1, LPS-induced TNF-α
Method: Lipopolysaccharide-Activated THP1 Cell TNF Production Assay
THP1 cells are resuspended in fresh THP1 media (RPMI 1640, 10% heat-inactivated FBS, 1XPGS, 1XNEAA, plus 30 μM PME) at a concentration of 1E6/mL. One hundred microliters of cells per well are plated in a polystyrene 96-well tissue culture. One microgram per mL of bacterial LPS is prepared in THP1 media and is transferred to the wells. Test compounds are dissolved in 100% DMSO and are serially diluted 3-fold in a polypropylene 96-well microtiter plate (drug plate). HI control and LO control wells contain only DMSO. One microliter of test compound from the drug plate followed by 10 μL of LPS are transferred to the cell plate. The treated cells are induced to synthesize and secrete TNF-α at 37° C. for 3 h. Forty microliters of conditioned media are transferred to a 96-well polypropylene plate containing 110 μL of ECL buffer (50 mM Tris-HCl pH 8.0, 100 mM NaCl, 0.05% Tween 20, 0.05% NaN3 and 1% FBS) supplemented with 0.44 nM MAB610 monoclonal Ab (R&D Systems), 0.34 nM ruthenylated AF210NA polyclonal Ab (R&D Systems) and 44 μg/mL sheep anti-mouse M280 Dynabeads (Dynal). After a 2 h incubation at room temperature with shaking, the reaction is read on the ECL M8 Instrument (IGEN Inc.). A low voltage is applied to the ruthenylated TNF-α immune complexes, which in the presence of TPA (the active component in Origlo), results in a cyclical redox reaction generating light at […]. The amount of secreted TNF-α in the presence of compound compared with that in the presence of DMSO vehicle alone (HI control) is calculated using the formula: % control (POC)=(cpd−average LO)/(average HI−average LO)*100. Data (consisting of POC and inhibitor concentration in μM) is fitted to a 4-parameter equation (y=A+((B−A)/(1+((x/C)^D))), where A is the minimum y (POC) value, B is the maximum y (POC), C is the x (cpd concentration) at the point of inflection and D is the slope factor) using a Levenburg-Marquardt non-linear regression algorithm.

p38 = p38 (Homo sapiens, UniProt Q16539); experiment: p38 in-vitro HTRF enzyme assay; type: biochemical; settings: recombinant human enzyme, read-out: p38 enyme HTRF assay IC50
Method: p38 In-Vitro HTRF Enzyme Assay
The compounds of the invention can be tested for their respective affinities for the p38 protein using a conventional p38 in-vitro enzyme activity assay. For example, a P38-alpha HTRF assay may be used to measure the protein's in-vitro phosphorylation activity, and the data analyzed using time resolved fluorimetry techniques (FRET). A p38 HTRF assay is as follows. The kinase reaction buffer for p38α, p38β, p38δ and p38γ HTRF assays consists of 50 mM Tris-pH 7.5, 5 mM MgCl2, 0.1 mg/mL BSA, 100 μM Na3VO4 and 0.5 mM DTT. The HTRF detection buffer contains 100 mM HEPES-pH 7.5, 100 mM NaCl, 0.1% BSA, 0.05% Tween-20, and 10 mM EDTA. Each compound was dissolved in 100% DMSO and serially diluted (3 fold, 10 point) in a polypropylene 96-well microtiter plate (drug plate). The final starting concentration of the compound in the p38α and p38β enzymatic assays was about 1 μM. The final starting concentration of each compound in the p38δ and p38γ enzymatic assays was about 10 μM. The p38α, p38β, p38δ and p38γ kinase reactions were carried out in a polypropylene 96-well black round bottom assay plate in total volume of 30 μL kinase reaction buffer. Appropriate concentration of purified and activated enzyme (recombinant human) was mixed with indicated concentration of ATP and 100 nM GST-ATF2-Avitag, in the presence or absence (HI control) of each compound. In the absence of enzyme, the background was measured as LO control. HI controls and LO controls contained only DMSO. The reaction was allowed to incubate for 1 hour at RT. […] After 60 minutes incubation at room temperature, the assay plate was read in a Discovery Plate Reader. […] The resulting data was analyzed by taking the proportion of substrate phosphorylated in the kinase reaction in the presence of each individual compound and comparing it with that phosphorylated in the presence of DMSO vehicle alone (HI control). The data was calculated using the formula: % control (POC)=(compound−average LO)/(average HI−average LO)*100. […] All results were expressed as the mean±the standard error of the mean. Data acquisition and non-linear regression algorithms were performed using Activity Base v5.2 and XLfit software v4.1 respectively. Additional assay information may be obtained in Park Y W, Cummings R T, Wu L, et al. Homogeneous Proximity Tyrosine Kinase Assays Scintillation Proximity Assay versus Homogeneous Time-Resolved Fluorescence. Analytical Biochemistry.

IL-1 = experiment: LPS induced IL-1 cell based assay (LPS-activated monocytes); settings: Homo sapiens, Monocyte
Method: Lipopolysaccharide-Activated Monocyte TNF Production Assay
Test compounds were evaluated in vitro for the ability to inhibit the production of TNF by monocytes activated with bacterial lipopolysaccharide (LPS). Fresh residual source leukocytes (a byproduct of plateletpheresis) were obtained from a local blood bank, and peripheral blood mononuclear cells (PBMCs) were isolated by density gradient centrifugation on Ficol-Paque Plus (Pharmacia). PBMCs were suspended at 2×10^6/mL in DMEM supplemented to contain 2% FCS, 10 mM, 0.3 mg/mL […], 100 U/mL penicillin G and […] streptomycin sulfate (complete media). Cells were plated into Falcon flat bottom, 96 well culture plates (200 μL/well) and cultured overnight at 37° C. and 6% CO2. Non-adherent cells were removed by washing with 200 μl/well of fresh medium. Wells containing adherent cells (˜70% monocytes) were replenished with 100 μL of fresh medium.
Preparation of Test Compound Stock Solutions
Test compounds were dissolved in […]. Compound stock solutions were prepared to an initial concentration of […]. Stocks were diluted initially to 20-200 μM in complete media. Nine two-fold serial dilutions of each compound were then prepared in complete medium.
Treatment of Cells with Test Compounds and Activation of TNF Production with Lipopolysaccharide
One hundred microliters of each test compound dilution were added to microtiter wells containing adherent monocytes and 100 μL complete medium. Monocytes were cultured with test compounds for 60 min at which time 25 μL of complete medium containing 30 ng/mL lipopolysaccharide from E. coli K532 were added to each well. Cells were cultured an additional 4 hrs. Culture supernatants were then removed and TNF presence in the supernatants was quantified using an ELISA. […]
Standard curve data were fit to a second order polynomial and unknown TNF-α concentrations determined from their OD by solving this equation for concentration. TNF concentrations were then plotted vs. test compound concentration using a second order polynomial. This equation was then used to calculate the concentration of test compounds causing a 50% reduction in TNF production.
Compounds of the invention can also be shown to inhibit LPS-induced release of IL-1β, IL-6 and/or IL-8 from monocytes by measuring concentrations of IL-1β, IL-6 and/or IL-8 by methods well known to those skilled in the art. […] Thus, the compounds of the invention may lower elevated levels of TNF-α, IL-1, IL-6, and IL-8 levels. Reducing elevated levels of these inflammatory cytokines to basal levels or below is favorable in controlling, slowing progression, and alleviating many disease states.

Chain of p38 (Q16539 whole entry): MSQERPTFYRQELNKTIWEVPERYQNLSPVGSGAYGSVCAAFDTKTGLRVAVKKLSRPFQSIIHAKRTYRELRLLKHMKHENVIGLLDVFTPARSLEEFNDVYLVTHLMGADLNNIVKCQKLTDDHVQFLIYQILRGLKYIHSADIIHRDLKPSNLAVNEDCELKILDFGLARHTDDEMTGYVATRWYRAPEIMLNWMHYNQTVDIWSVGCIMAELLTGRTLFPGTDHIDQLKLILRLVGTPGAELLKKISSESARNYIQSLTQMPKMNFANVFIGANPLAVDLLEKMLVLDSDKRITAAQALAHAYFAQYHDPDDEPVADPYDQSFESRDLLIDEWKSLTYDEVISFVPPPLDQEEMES

IC50 (THP1 cells; actual values) [nM] | IC50 (p38; actual values) [nM] | IC50 (IL-1; actual values) [nM] | IC50 (THP1 cells; range symbols) [nM] | IC50 (p38; range symbols) [nM] | IC50 (IL-1; range symbols) [nM] | SMILES
1.4 | 1.7 | 3.6 |  |  |  | CCn1c(=O)cc(Nc2cc(C(=O)NC3CC3)ccc2Cl)c2cnn(-c3ccc(F)cc3)c21 [Example 29, 4-chloro-N-cyclopropyl-3-((7-ethyl-1-(4-fluorophenyl)-6-oxo-6,7-dihydro-1H-pyrazolo[3,4-b]pyridin-4-yl)amino)benzamide]
 |  |  | 250 to 999 | 1000 to 5000 | 1000 to 5000 | Cn1c(=O)cc(Nc2ccc(F)cc2)c2cnn(-c3c(F)cccc3F)c21 [Example 10, 1-(2,6-difluorophenyl)-4-((4-fluorophenyl)amino)-7-methyl-1,7-dihydro-6H-pyrazolo[3,4-b]pyridin-6-one]
 |  |  | < 25 | < 25 | < 25 | Cc1ccc(C(=O)NC2CC2)cc1Nc1cc(=O)n(C)c2c1cnn2-c1c(F)cccc1F [Example 15, N-cyclopropyl-3-((1-(2,6-difluorophenyl)-7-methyl-6-oxo-6,7-dihydro-1H-pyrazolo[3,4-b]pyridin-4-yl)amino)-4-methylbenzamide]
 |  |  | < 25 | < 25 | < 25 | CCn1c(=O)cc(Nc2cc(C(=O)NC3CC3)ccc2C)c2cnn(-c3ccc(F)cc3)c21 [Example 23, N-cyclopropyl-3-((7-ethyl-1-(4-fluorophenyl)-6-oxo-6,7-dihydro-1H-pyrazolo[3,4-b]pyridin-4-yl)amino)-4-methylbenzamide]
 |  |  | 1000 to 5000 | 1000 to 5000 | 1000 to 5000 | Cc1ccc(C(=O)O)cc1Nc1cc(=O)n(C)c2c1cnn2-c1ccc(F)cc1F [Example 17, 3-((1-(2,4-difluorophenyl)-7-methyl-6-oxo-6,7-dihydro-1H-pyrazolo[3,4-b]pyridin-4-yl)amino)-4-methylbenzoic acid]
 |  |  | < 25 | < 25 | < 25 | Cn1c(=O)cc(Nc2cc(C(=O)NC3CC3)ccc2Cl)c2cnn(-c3c(F)cccc3F)c21 [Example 11, 4-chloro-N-cyclopropyl-3-((1-(2,6-difluorophenyl)-7-methyl-6-oxo-6,7-dihydro-1H-pyrazolo[3,4-b]pyridin-4-yl)amino)benzamide]
 |  |  | < 25 | < 25 | < 25 | Cc1ccc(C(=O)NC2CC2)cc1Nc1cc(=O)n(C)c2c1cnn2-c1cc(F)ccc1F [Example 20, N-cyclopropyl-3-((1-(2,5-difluorophenyl)-7-methyl-6-oxo-6,7-dihydro-1H-pyrazolo[3,4-b]pyridin-4-yl)amino)-4-methylbenzamide]
 |  |  | < 25 | < 25 | 25 to 99 | Cc1ccc(C(=O)NC2CC2)cc1Oc1cc(=O)n(C)c2c1cnn2-c1c(F)cccc1F [Example 16, N-cyclopropyl-3-((1-(2,6-difluorophenyl)-7-methyl-6-oxo-6,7-dihydro-1H-pyrazolo[3,4-b]pyridin-4-yl)oxy)-4-methylbenzamide]
0.6 | 1.6 | 3.8 |  |  |  | CONC(=O)c1ccc(C)c(Nc2cc(=O)n(C)c3c2cnn3-c2ccc(F)cc2F)c1 [Example 30, 3-((1-(2,4-difluorophenyl)-7-methyl-6-oxo-6,7-dihydro-1H-pyrazolo[3,4-b]pyridin-4-yl)amino)-N-methoxy-4-methylbenzamide]
0.8 | 2.1 | 4.2 |  |  |  | Cn1c(=O)cc(Nc2cc(C(=O)NC3CC3)ccc2Cl)c2cnn(-c3ccc(F)cc3)c21 [Example 28, 4-chloro-N-cyclopropyl-3-((1-(4-fluorophenyl)-7-methyl-6-oxo-6,7-dihydro-1H-pyrazolo[3,4-b]pyridin-4-yl)amino)benzamide]
0.4 | 1.2 | 3.3 |  |  |  | CCn1c(=O)cc(Nc2cc(C(=O)NC3CC3)ccc2Cl)c2cnn(-c3ccc(F)cc3F)c21 [Example 27, 4-chloro-N-cyclopropyl-3-((1-(2,4-difluorophenyl)-7-ethyl-6-oxo-6,7-dihydro-1H-pyrazolo[3,4-b]pyridin-4-yl)amino)benzamide]
 |  |  | < 25 | < 25 | 100 to 249 | Cc1ccc(C(=O)NC2CC2)cc1Oc1cc(=O)n(C)c2c1cnn2-c1cccc(F)c1 [Example 5, N-cyclopropyl-3-((1-(3-fluorophenyl)-7-methyl-6-oxo-6,7-dihydro-1H-pyrazolo[3,4-b]pyridin-4-yl)oxy)-4-methylbenzamide]
